Data from PMC5408257, “Bioactive Metabolites from the Deep Subseafloor Fungus Oidiodendron griseum UBOCC-A-114129” (Marine Drugs, 2017).

Target: T1, CDC2-like kinase-1 (CLK1) (Mus musculus, UniProt P22518)
T1 construct: Recombinant GST-CLK1
Test: radiometric kinase assay with […] [gamma-33P] ATP, dose-response (n = […])
Assay type: biochemical

T1 sequence (P22518 whole entry): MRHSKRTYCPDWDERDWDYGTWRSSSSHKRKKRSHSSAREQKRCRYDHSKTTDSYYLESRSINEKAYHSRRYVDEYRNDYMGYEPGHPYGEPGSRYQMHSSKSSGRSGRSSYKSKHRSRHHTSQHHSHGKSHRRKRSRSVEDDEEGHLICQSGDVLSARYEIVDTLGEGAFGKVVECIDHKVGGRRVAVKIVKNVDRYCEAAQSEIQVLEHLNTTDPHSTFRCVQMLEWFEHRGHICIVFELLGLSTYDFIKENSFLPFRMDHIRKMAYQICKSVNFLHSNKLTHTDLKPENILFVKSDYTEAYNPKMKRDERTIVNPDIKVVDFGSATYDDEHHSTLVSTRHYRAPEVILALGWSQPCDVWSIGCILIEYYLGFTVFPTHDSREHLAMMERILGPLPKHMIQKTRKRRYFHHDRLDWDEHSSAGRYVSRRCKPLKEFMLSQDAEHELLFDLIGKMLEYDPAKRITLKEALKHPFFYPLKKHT

IC50: 56.1 µM
SMILES: CC(C)=CCc1c(O)c(O)c(O)c2c1CC(=O)OC2C (stereo not shown) [compound 3, dihydrosecofuscin]
